Data: patent US10960037B2, “Method of treating neurological conditions with extract of Nerium species or Thevetia species” (PHOENIX BIOTECHNOLOGY, INC., priority 2010, dated 2021)

Test system: 5×-ARE-luciferase transcriptional reporter in primary corticostriatal neuronal co-cultures
Test: Nrf2 activation, 5×ARE-luciferase reporter assay
Assay type: cell-based, mouse
Details: 7 h and 24 h treatment
Procedure: Activation of the 5×-ARE luciferase reporter became stronger with an apparent left-shift in concentration-response for extended treatment over 24 h compared to 7 h. Fold-expression changes are expressed relative to the DMSO-carrier only condition (“0”) normalized to a co-transfected, constitutive Renilla luciferase control and set to a value of 1.
Primary corticostriatal neuronal co-cultures were prepared from E18 Sprague-Dawley rat or C57Bl/6 mouse embryos of either gender. For luciferase reporter assays, the Cignal Antioxidant Response Reporter kit (Qiagen) was used. The 5×ARE luciferase reporter mixture at 40:1 luciferase:Renilla plasmid was transfected into cortical and striatal neurons separately using an Amaxa electroporation device (Lonza). After electroporation, neurons were pooled and immediately plated into 96-well plates containing mature glial cultures. After culturing for 96 h, neuroprotective compositions were added at the indicated concentrations for 7 or 24 h prior to harvesting using Dual-Glo Luciferase Assay System protocol and reagents (Promega). Dual-wavelength luminescence was detected using a SpectraMax L microplate reader (Molecular Devices). Luciferase values were normalized to the internal Renilla control and fold-expression over the DMSO-only treatment control was calculated. At least 3 independent experiments were done using 4-6 biological replicates.

CC1(C)CC[C@]2(C(=O)O)CC[C@]3(C)[C@H](C(=O)C=C4[C@@]5(C)C=C(C#N)C(=O)C(C)(C)[C@@H]5CC[C@]43C)[C@@H]2C1 [bardoxolone]
induction of 5×-ARE-luciferase reporter: Concentration- and time-dependent induction
